# Literature values as cited in patent publication US20080207608A1, “2-Propene-1-Ones As Hsp 70 Inducers” (priority 2004, published 2008).
# Legend:
# [1] = system: streptozotocin-induced neuropathy; conditions: cited from earlier work
# [2] = system: experimental sub-arachnoid haemorrhage; conditions: sub-arachnoidal autologous blood; cited from earlier work
# [3] = system: rat orthotopic liver transplantation model; conditions: donors treated; vehicle: all recipients died; cited from earlier work
# injured motoneurones = conditions: cited from earlier work
molecule,measurement,setting,value
OC(CO/N=C(\Cl)c1cccnc1)CN1CCCCC1 (stereo not shown) [Bimoclomol],"reduction of nerve conduction slowing, motor",[1]; motor,38%
same,"reduction of nerve conduction slowing, sensory",[1]; sensory,42%
same,retardation of elevated ischemic resistance,[1]; streptozotocin-induced neuropathy,71%
same,reduction of the size of cerebral tissue stained with Evans blue leakage,[2],39%
Geranylgeranyl acetone,7-day survival of the recipients,[3],~90%
[O-][n+]1cccc(/C(Cl)=N/OC[C@H](O)CN2CCCCC2)c1 [BRX-220],motoneurones survived,"injured motoneurones; 14 days after injury, vehicle group 21%",39%
same,motoneurons survived,"injured motoneurones; at 10 weeks, untreated group 15%",42%
